Data from PMC6696315, “Inhibiting Acetylcholinesterase to Activate Pleiotropic Prodrugs with Therapeutic Interest in Alzheimer’s Disease” (Molecules, 2019).

Tests used:
AChE = AChE (Homo sapiens, UniProt P22303); test: AChE inhibition, Ellman assay; assay type: biochemical; set-up: AChE from human erythrocytes; purchased Sigma Aldrich; host or cells: human erythrocytes (natural source); conditions: (h)AChE IC50, Ellman assay; mean ± SEM of at least two experiments
Procedure: All the synthesized phenolic derivatives and their carbamates were evaluated as potential inhibitors of human AChE, using the Ellman assay, as well as potential ligands for human 5-HT4R using a radioligand displacement assay.
The inhibitory capacity of compounds on AChE biological activity was evaluated through the use of the spectrometric method of Ellman. Acetylthiocholine iodide and 5,5-dithiobis-(2-nitrobenzoic) acid (DTNB) were purchased from Sigma Aldrich. AChE from human erythrocytes (buffered aqueous solution, ≥500 units/mg protein (BCA), Sigma Aldrich, St. Louis, MO, USA) was diluted in 20 mM HEPES buffer pH 8, 0.1% Triton X-100 such as to have enzyme solution with 0.25 unit/mL enzyme activity. In the procedure, 100 μL of 0.3 mM DTNB dissolved in a phosphate buffer with pH 7.4 were added into the 96-well plates followed by 50 μL of the test compound solution and 50 μL of enzyme (0.05 U final). After 5 min of preincubation at 25 °C, the reaction was then initiated by the injection of 50 μL of 10 mM acetylthiocholine iodide solution. […] Assays were performed with a blank containing all components except acetylthiocholine, in order to account for non-enzymatic reactions. The reaction slopes were compared and the percent inhibition due to the presence of test compounds was calculated by the following expression: 100 − (vi/v0 × 100), where vi is the rate calculated in the presence of inhibitor and v0 is the enzyme activity.

mice [1] = test: Spontaneous alternation (Y maze), scopolamine-induced deficit; assay type: in vivo, NMRI mice; conditions: 1 mg/kg IP 30 min before test, scopolamine 0.5 mg/kg SC
Procedure: (§1) Animals. Adult male NMRI mice (3 months old, weighing 35–40 g) from Janvier labs (Le Genest-Saint-Isle, France) were used to perform experiments. Mice were housed by ten in standard polycarbonate cages in standard controlled conditions (22 ± 2 °C, 55 ± 10% humidity) with a reversed 12 h light/dark cycle (light on at 7 pm). Food and water were available ad libitum in the home cage. All experiments were conducted (between 9 am and 3 pm) during the active–dark phase of the cycle and were in agreement with the European Directives and French law on animal experimentation (personal authorization n° 14–17 for MB and 14–60 for TF).
(§2) Spatial working memory. The antiamnesic activity of the tested compounds was evaluated by a reversal of deficit on spontaneous alternation behavior in the Y maze test. […] The Y maze made of grey plastic consisted of three equally-spaced arms (21-cm long, 7-cm wide with walls 15-cm high). The mouse was placed at the end of one of the arms and allowed to move freely through the maze during a 5 min session, while the sequence of arm entries was recorded by an observer. An arm entry was scored when all four feet crossed into the arm. An alternation was defined as entries into all three arms on a consecutive occasion.
(§3) Pharmacological treatments.

(ee)AChE = target: T1, (ee)AChE (Electrophorus electricus, UniProt O42275); test: AChE-dependent decarbamoylation (UPLC, LCMS); assay type: biochemical; conditions: 5 µM, PBS pH 7.4, 24 h
T1 construct: purchased Sigma Aldrich
T1 sequence (O42275 24-633): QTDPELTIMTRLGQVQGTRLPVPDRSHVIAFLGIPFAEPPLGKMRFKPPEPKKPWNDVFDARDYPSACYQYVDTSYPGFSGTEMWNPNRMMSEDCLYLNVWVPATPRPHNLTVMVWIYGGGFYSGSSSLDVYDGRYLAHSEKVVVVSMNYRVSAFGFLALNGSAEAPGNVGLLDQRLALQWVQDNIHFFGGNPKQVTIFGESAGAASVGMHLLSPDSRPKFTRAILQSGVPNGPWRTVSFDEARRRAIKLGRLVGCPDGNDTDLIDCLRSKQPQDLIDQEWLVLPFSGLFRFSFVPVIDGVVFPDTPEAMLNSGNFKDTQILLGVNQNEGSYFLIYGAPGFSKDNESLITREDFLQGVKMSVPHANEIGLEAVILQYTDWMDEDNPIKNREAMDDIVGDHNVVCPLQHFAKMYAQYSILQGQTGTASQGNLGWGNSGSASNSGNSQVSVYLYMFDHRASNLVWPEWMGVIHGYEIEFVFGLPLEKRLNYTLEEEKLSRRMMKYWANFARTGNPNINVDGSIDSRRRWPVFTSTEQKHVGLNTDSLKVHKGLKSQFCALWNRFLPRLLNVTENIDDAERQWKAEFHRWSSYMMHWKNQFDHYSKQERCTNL
Procedure: The in vitro decarbamoylation of 20 in the presence of AChE was established according to a new analytical method developed by Alix et al.. A large excess of Electrophorus electricus (eel)AChE was added to a solution of 20 in a phosphate-buffered saline (PBS) buffer (pH 7.4) at 25 °C. After 24 h of incubation, the solution was extracted by ethyl acetate, evaporated and solubilized in acetonitrile, and then analyzed by UPLC and LCMS. Owing to its high homology with the active-site sequence of the human AChE and its commercial availability, (ee)AChE is commonly used for in vitro assays and was chosen for this study.
The HPLC analyses were performed using an Agilent pump 1290, an autosampler 1290 and a diode array UV detector 1260 (Agilent technologies, Santa Clara, CA, USA). A reversed phase column C18 (Zorbax1 Eclipse Plus RRHD, 1.8 µm, 2.1 × 50 mm, Agilent) has been used for all components. A binary pump was used and the mobile phase was always composed of a mixture of (A) water (0.1% formic acid) and (B) acetonitrile (0.1% formic acid). Solutions of compound 19 and 20 were prepared in a PBS buffer (pH 7.4). […] The crude product was submerged in 50 µL of ACN, then analyzed by UPLC and LC-MS.

mice [2] = test: Spontaneous alternation (Y maze), MK801-induced deficit; assay type: in vivo, NMRI mice; conditions: 1 mg/kg IP 30 min before test, MK801 0.1 mg/kg SC
Procedure: as §1, §2, §3

[3] = Parallel artificial membrane permeability assay (PAMPA-BBB)
Procedure: The ability of carbamate 20 to cross the BBB was assessed using a parallel artificial membrane permeability assay experiment. […] The parallel artificial membrane permeability assay (PAMPA) blood–brain barrier (BBB) experiments were conducted using the Pampa Explorer Kit (Pion Inc., Billerica, MA, USA) according to the protocol provided by the manufacturer. […] The PAMPA sandwich was assembled and allowed to incubate at room temperature for 4 h without stirring. The sandwich was then separated, and the UV-visible spectra were measured for both the donor and receiver wells with the microplate reader (Tecan Infinit M200).

[4] = CNS-activity and acute toxicity test; conditions: male, NMRI, mouse, in vivo, ip
Procedure: as §1
(§4) CNS-activity and acute toxicity test. Behavioral and neurological changes induced by graded doses (1, 10, 100 mg/kg) of the tested derivatives were evaluated in mice, in groups of four, by a standardized observation technique at different times (30 min, 3 and 24 h) after intraperitoneal administration. […] The approximate DL50 of the compounds were also calculated through the quantification of mortality after 24 h. Amphetamine (2 mg/kg) and chlorpromazine (10 mg/kg) were used as the stimulant and depressive references, respectively.

mice [5] = test: CNS-activity and acute toxicity test; conditions: mice, IP
Procedure: as §1, §4

Sequence of AChE (P22303 32-617 isoform P22303-2 limits assumed): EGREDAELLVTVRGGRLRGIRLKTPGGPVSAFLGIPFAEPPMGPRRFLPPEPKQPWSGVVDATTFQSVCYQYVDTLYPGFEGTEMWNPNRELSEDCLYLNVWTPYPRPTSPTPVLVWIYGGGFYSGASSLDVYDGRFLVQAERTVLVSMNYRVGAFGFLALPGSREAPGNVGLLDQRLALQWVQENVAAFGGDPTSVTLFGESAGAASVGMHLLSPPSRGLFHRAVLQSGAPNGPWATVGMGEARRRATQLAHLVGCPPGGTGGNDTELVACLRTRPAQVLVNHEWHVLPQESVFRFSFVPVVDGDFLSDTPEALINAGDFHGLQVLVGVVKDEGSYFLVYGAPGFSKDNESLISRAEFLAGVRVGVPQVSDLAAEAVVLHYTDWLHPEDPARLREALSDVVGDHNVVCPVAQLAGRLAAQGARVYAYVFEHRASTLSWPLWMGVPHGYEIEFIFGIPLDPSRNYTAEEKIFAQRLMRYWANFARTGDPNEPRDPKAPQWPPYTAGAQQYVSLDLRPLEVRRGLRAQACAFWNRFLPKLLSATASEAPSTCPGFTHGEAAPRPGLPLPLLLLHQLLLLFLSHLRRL

CCN(C)C(=O)Oc1cccc(CN2CCC(CCC(=O)c3cc(Cl)c(N)cc3OC)CC2)c1.O=C(O)/C=C/C(=O)O [Compound 20, [3-[[4-[3-(4-Amino-5-chloro-2-methoxyphenyl)-3-oxopropyl]-1-piperidyl]methyl]phenyl] N-ethyl-N-methyl-carbamate fumaric acid salt]
IC50 (AChE): 6.07 ± 0.404 µM
percentage of spontaneous alternation (mice [1]): significantly different from the value of the chance level
decarbamoylation in the presence of (ee)AChE ((ee)AChE; 250 U/mL (ee)AChE): decarbamoylation of 20 and release of 4
chemical conversion in PBS buffer without (ee)AChE ((ee)AChE; negative control): not chemically converted into 4
percentage of spontaneous alternation (mice [2]): significantly different from the value of the chance level
LogPe ([3]; PAMPA effective permeability coefficient, pH 7.4, 4 h): −4.39
Papp at 4 h, 100 μM ([3]; PAMPA, pH 7.4): 40.7 ×10⁻⁶ cm/s
brain penetration (BBB crossing) ([3]; classification from PAMPA): good brain penetration
LD50 at 24 h [4]: > 100 mg/kg
Symptoms (Subtoxic Doses) (mice [5]; 100 mg/kg): 100, tremors, hypoactivity full recovery after 24h
Symptoms (Subtoxic Doses) (mice [5]; 1–10 mg/kg): 1–10, no symptoms
